Source: patent US20240325495A1, “FUSION PROTEINS FOR THE TREATMENT OF DISEASE” (Bristol-Myers Squibb Company, priority 2020, published 2024)

Tested on: NZB×NZW F1 mice
Experiment: mIL-2/CD25 and prednisolone combination in NZB×NZW mice
Format: in vivo, mouse
Method: The effect of mIL-2/CD25 on Tregs was also assessed in the spleen at completion of this study (after 14 weeks of treatment).
At completion of study, one kidney from each mouse was collected in RNA Later and then homogenized in mRNA Catcher Lysis Buffer with a Tissue Lyser. mRNA was purified using mRNA Catcher PLUS according to the manufacturer's protocol (Invitrogen). cDNA was synthesized using SuperScript II with random hexamer primers. PCR was performed with SYBR Green Master Mix (Invitrogen). Relative quantification analysis was determined using the 2-ΔΔCT method using cyclophilin (PPIA) as the housekeeping gene. Expression of inflammatory cytokine and leukocyte surface receptors were analyzed.

In the case of `C[C@]12C=CC(=O)C=C1CC[C@@H]1[C@@H]2[C@@H](O)C[C@@]2(C)[C@H]1CC[C@]2(O)C(=O)CO` [prednisolone, Prednisolone], the “percentage of Tregs and CD25 MFI on Tregs in the spleen” value (after 14 weeks of treatment) is reported as “did not alter” and the “proteinuria levels and anti-dsDNA titers” value (prednisolone 1 mg/kg p.o. 3×/week, mIL-2/CD25 0.1 mg/kg s.c. 2×/week, or both, 14 weeks) is reported as “partial protection”.
